Source: patent EP1724268A1, “COMPOUND HAVING TGF-BETA INHIBITORY ACTIVITY AND PHARMACEUTICAL COMPOSITION CONTAINING SAME” (KIRIN BEER KABUSHIKI KAISHA, priority 2004, dated 2005)

System: TGFβ signal
Assay: TGFβ signal inhibitory activity, (SBE)4-Luc reporter in A549 cells (Test Examples 1A and 1B)
Assay type: cell-based, human
Details: Homo sapiens, A549, TGFβ-1 2 ng/ml, 4 hr, Table 1A, read-out: TGFβ inhibition rate, %; for inhibition at 3 µM: test compound 3 µM; for inhibition at 10 µM: test compound 10 µM; for inhibition at 1 µM: test compound 1 µM
Procedure: Test Example 1A: TGFβ signal inhibitory activity (in vitro test) The compounds according to the present invention was evaluated for TGFβ signal inhibitory activity according to the method described in J. Boil .Chem., 273, 21145-21152 (1998). Specifically, a plasmid having four tandem binding sequences of Smad3, a TGF-beta signal transducer, to the upstream of a luciferases gene were used as a reporter plasmid ((SBE)4-Luc) to detect TGF-beta signal, This reporter gene was introduced into human pulmonary carcinoma epithelial cells (A549) (available from ATCC) to establish a stable cell line. A test compound and TGFβ-1 (2 ng/ ml) were added to the cells, and the mixture was cultured for 4 hr. In this case, the compounds according to the present invention synthesized in the Examples were used as the test compound. After the culture, the luciferase activity of the cells were measured by chemiluminescence (Steady Glo (trademark) luciferase assay system, available from Promega). Likewise, the luciferase activity was measured as a control against the culture of cells with the addition of TGFβ only and the culture of cells without the addition of both TGFβ and the test compound.
The TGFβ inhibition (%) was calculated by the following equation, based on the measurement results. TGFβ inhibition(%) = (A-B)/(A-C) × 100 [formula] wherein • A: luciferase activity with the addition of TGFβ1 and without the addition of test compound (relative luciferase unit), • B: luciferase activity with the addition of both TGFβ1 and test compound (relative luciferase unit), and • C: luciferase activity without the addition of both TGFβ1 and test compound (relative luciferase unit).
The test was carried out for each of test compound at the concentrations of 3 µM and 10 µM. For certain test compounds, the test was further carried out for test compound at the concentration of 1 µM.
For the compounds of Reference Examples, the TGFβ signal inhibitory activity was evaluated in the same manner as in Test Example 1A.

SMILES	inhibition at 3 µM	inhibition at 10 µM	inhibition at 1 µM
COc1ccc2c(Oc3cc4cccnc4nc3-c3ccccc3)ccnc2c1 [Compound 56, 3-(7-Methoxy-quinolin-4-yloxy)-2-phenyl-[1,8]naphthyridine]	99%	100%	
Clc1ccc2nccc(Oc3cc4cccnc4nc3-c3ccccc3)c2c1Cl [Compound 57, 3-(5,6-Dichloro-quinolin-4-yloxy)-2-phenyl-[1,8]naphthyridine]	75%	100%	
Clc1cc2nccc(Oc3cc4cccnc4nc3-c3ccccc3)c2cc1Cl [Compound 58, 3-(6,7-Dichloro-quinolin-4-yloxy).2-phenyl-[1,8]naphthyridine]	83%	100%	
COc1cc2nccc(Oc3cc4cccnc4nc3-c3ccccc3)c2cc1F [Compound 59, 3-(6-Fluoro-7-methoxy-quinolin-4-yloxy)-2-phenyl-[1,8]naphthyridine]			93%
COc1cc2c(Oc3cc4cccnc4nc3-c3ccccc3)ccnc2cc1F [Compound 60, 3-(7-Fluoro-6-methoxy-quinolin-4-yloxy)-2-phenyl-[1,8]naphthyridine]	76%	100%	
COc1cc2c(Oc3cc4cccnc4nc3-c3ccccc3)ccnc2cc1Cl [Compound 61, 3-(7-Chloro-6-methoxy-quinolin-4-yloxy)-2-phenyl-[1,8]naphthyrridine]	98%	100%	
COc1cc2c(Oc3cc4cccnc4nc3-c3ccccc3)ccnc2cc1C [Compound 62, 3-(6-Methoxy-7-methyl-quinolin-4-yloxy)-2-phenyl-[1,8]naphthyridine]	99%	100%	
COC(=O)c1cc2c(Oc3cc4cccnc4nc3-c3ccccc3)ccnc2cc1OC [Compound 63, Methyl 7-methoxy-4-(2-phenyl-[1,8]naphthyridin-3-yloxy)-quinoline-6-carboxylate]	99%	100%	
COc1cc2nccc(Oc3cc4cccnc4nc3-c3ccccc3)c2cc1C(=O)NCc1ccccc1 [Compound 65, 7-Methoxy-4-(2-phenyl-[1,8]naphthyridin-3-yloxy)-quinoline-6-carboxylate benzylamide]	97%	100%	
COc1cc2nccc(Oc3cc4cccnc4nc3-c3ccccc3)c2cc1C(N)=O [Compound 66, 7-Methoxy-4-(2-phenyl-[1,8]naphthyridin-3-yloxy)-quinoline-6-carboxylic acid amide]	100%		97%
Clc1ccc2ncnc(Oc3cc4cccnc4nc3-c3ccccc3)c2c1 [Compound 68, 6-Chloro-4-(2-phenyl-[1,8]naphthyridin-3-yloxy)-quinazoline]	43%	91%	
Brc1ccc2ncnc(Oc3cc4cccnc4nc3-c3ccccc3)c2c1 [Compound 69, 6-Bromo-4-(2-phenyl-[1,8]naphthyridin-3-yloxy)-quinazoline]	52%	94%	
COc1ccc2ncnc(Oc3cc4cccnc4nc3-c3ccccc3)c2c1 [Compound 70, 6-Methoxy-4-(2-phenyl-[1,8]naphthyridin-3-yloxy)-quinazoline]	61%	95%	
c1ccc(-c2nc3ncccc3cc2Oc2ccnc3ccsc23)cc1 [Compound 71, 2-Phenyl-3-(thieno[3,2-b]pyridin-7-yloxy)-[1,8]naphthyridine]	93%	100%	
c1ccc(-c2cc3nccc(Oc4cc5cccnc5nc4-c4ccccc4)c3s2)cc1 [Compound 72, 2-Phenyl-3-(2-phenyl-thieno[3,2-b]pyridin-7-yloxy)-[1,8]naphthyridine]	99%		81%
c1ccc(-c2nc3ncccc3cc2Oc2ccnc3cccnc23)cc1 [Compound 73, 4-(2-Phenyl-[1,8]naphthyridin-3-yloxy)-[1,5]naphthyridine]	26%	80%	
c1ccc(-c2nc3ncccc3cc2Oc2ccnc3ccncc23)cc1 [Compound 74, 4-(2-Phenyl-[1,8]naphthyridin-3-yloxy)-[1,6]naphthyridine]	53%	90%	
c1ccc(-c2nc3ncccc3cc2Oc2ncnc3ccsc23)cc1 [Compound 75, 2-Phenyl-3-(thieno[3,2-d]pyrimidin-4-yloxy)-[1,8]naphthyridine]	84%	98%	

SMILES	inhibition at 3 µM	inhibition at 10 µM	inhibition at 1 µM
c1ccc(-c2nc3ncccc3cc2Oc2ncnc3sccc23)cc1 [Compound 76, 2-Phenyl-3-(thieno[2,3-d]pyrimidin-4-yloxy)-[1,8]naphthyridine]	44%	83%	
Cc1csc2ncnc(Oc3cc4cccnc4nc3-c3ccccc3)c12 [Compound 77, 3-(5-Methyl-thieno[2,3-d]pyrimidin-4-yloxy)-2-phenyl-[1,8]naphthyridine]	93%	99%	
Cc1sc2ncnc(Oc3cc4cccnc4nc3-c3ccccc3)c2c1C [Compound 78, 3-(5,6-Dimethyl-thieno[2,3-d]pyrimidin-4-yloxy)-2-phenyl-[1,8] naphthyridine]	75%	99%	
COc1cccc(-c2nc3ncccc3cc2Oc2ccnc3cc(OC)c(OC)cc23)c1 [Compound 81, 3-(6,7-Dimethoxy-quinolin-4-yloxy)-2-(3-methoxy-phenyl)-[1,8] naphthyridine]	97%	100%	
Brc1ccc(-c2nc3ncccc3cc2Oc2ccnc3ccccc23)cc1 [Compound 82, 2-(4-Bromo-phenyl)-3-(quinolin-4-yloxy)-[1,8]naphthyridine]	25%	67%	
COc1cc2nccc(Oc3cc4cccnc4nc3-c3ccc(F)cc3)c2cc1OC [Compound 83, 3-(6,7-Dimethoxy-quinolin-4-yloxy)-2-(4-fluoro-phenyl)-[1,8]naphthyridine]	92%	99%	
COc1cc2nccc(Oc3cc4cccnc4nc3-c3ccc(Cl)cc3)c2cc1OC [Compound 84, 2-(4-Chloro-phenyl)-3-(6,7-dimethoxy-quinolin-4-yloxy)-[1,8]naphthyridine]	69%	100%	
COc1cc2nccc(Oc3cc4cccnc4nc3-c3ccc(Br)cc3)c2cc1OC [Compound 85, 2-(4-Bromo-phenyl)-3'-(6,7-dimethoxy-quinolin-4-yloxy)-[1,8]naphthyridine]	48%	97%	
COc1cc2nccc(Oc3cc4cccnc4nc3-c3ccc(C#N)cc3)c2cc1OC [Compound 86, 4-[3-(6,7-Dimethoxy-quinolin-4-yloxy)-[1,8]naphthyridin-2-yl]-benzonitrile]	26%	74%	
COc1cc2nccc(Oc3cc4cccnc4nc3-c3cccnc3)c2cc1OC [Compound 88, 3-(6,7-Dimethoxy-quinolin-4-yloxy)-2-pyridin-3-yl-[1,8]naphthyridine]	90%	100%	
COc1cc2nccc(Oc3cc4cccnc4nc3-c3ccncc3)c2cc1OC [Compound 89, 3-(6,7-Dimethoxy-quinolin-4-yloxy)-2-pyridin-4-yl-[1,8]naphthyridine]	36%	77%	
c1cnc2nc(-c3csc4ccccc34)c(Oc3ccnc4ccccc34)cc2c1 [Compound 90, 2-Benzo[b]thiophen-3-yl-3-(quinolin-4-yloxy)-[1,8]naphthyridine]	22%	68%	
COc1cc2nccc(Oc3cc4cccnc4nc3-c3csc4ccccc34)c2cc1OC [Compound 91, 2-Benzo[b]thiophen-3-yl-3-(6,7-dimethoxy-quinolin-4-yloxy)-[1,8]naphthyridine]	97%	100%	
COc1cc2nccc(Oc3cc4ccccc4nc3-c3ncccn3)c2cc1OC [Compound 92, 6,7-Dimethoxy-4-(2-pyrimidin-2-yl-quinolin-3-yloxy)-quinoline]	98%		62%
COc1cc2nccc(Oc3cc4cnccc4nc3-c3ccccc3)c2cc1OC [Compound 93, 3-(6,7-Dimethoxy-quinolin-4-yloxy)-2-phenyl-[1,6]naphthyridine]	97%	100%	
COc1cc2nccc(Oc3cc4cnccc4nc3-c3cccnc3)c2cc1OC [Compound 95, 3-(6,7-Dimethoxy-quinolin-4-yloxy)-2-pyridin-3-yl-[1,6]naphthyridine]	40%	85%	
COc1cc2nccc(Oc3cc4ccncc4nc3C)c2cc1OC [Compound 97, 3-(6,7-Dimethoxy-quinolin-4-yloxy)-2-methyl-[1,7]naphthyridine]	52%	88%	
